Activity calls are given as the source filed them.
Key:
[1] = target: Serine/threonine-protein phosphatase (Homo sapiens, UniProt Q9BPW0); experiment: PP5 phosphatase inhibitors, dose response, biochemical, fluorescence (AID 2395)
[2] = target: T1, Replicative DNA helicase DnaB (Mycobacterium tuberculosis, UniProt P9WMR3); experiment: DnaB intein splicing inhibitors, dose response, biochemical, cell-free fluorescence (AID 449749); assay type: functional
T1 sequence (P9WMR3 whole entry): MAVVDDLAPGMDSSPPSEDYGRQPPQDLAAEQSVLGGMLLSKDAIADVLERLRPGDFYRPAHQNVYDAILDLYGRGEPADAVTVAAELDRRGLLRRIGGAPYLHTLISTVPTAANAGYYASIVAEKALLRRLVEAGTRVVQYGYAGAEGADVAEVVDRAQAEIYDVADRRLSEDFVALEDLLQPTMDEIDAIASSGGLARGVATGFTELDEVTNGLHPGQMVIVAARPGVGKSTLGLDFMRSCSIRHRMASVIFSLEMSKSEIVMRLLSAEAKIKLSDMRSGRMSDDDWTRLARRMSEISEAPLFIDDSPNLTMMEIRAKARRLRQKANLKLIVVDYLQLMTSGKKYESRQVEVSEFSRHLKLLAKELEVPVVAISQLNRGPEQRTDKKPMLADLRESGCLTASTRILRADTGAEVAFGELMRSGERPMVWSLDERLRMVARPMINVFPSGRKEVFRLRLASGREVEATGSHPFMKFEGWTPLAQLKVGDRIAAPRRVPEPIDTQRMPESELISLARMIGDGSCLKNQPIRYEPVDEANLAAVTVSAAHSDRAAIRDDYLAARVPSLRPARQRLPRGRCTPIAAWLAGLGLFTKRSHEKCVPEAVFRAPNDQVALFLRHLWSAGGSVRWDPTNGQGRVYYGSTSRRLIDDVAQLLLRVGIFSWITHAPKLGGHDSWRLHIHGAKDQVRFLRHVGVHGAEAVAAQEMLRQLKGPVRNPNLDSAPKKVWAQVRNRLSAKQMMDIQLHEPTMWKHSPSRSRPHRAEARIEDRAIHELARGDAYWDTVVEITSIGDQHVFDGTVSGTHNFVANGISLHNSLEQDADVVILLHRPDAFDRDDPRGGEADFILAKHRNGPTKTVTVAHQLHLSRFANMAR

[3] = target: 1-phosphatidylinositol 4,5-bisphosphate phosphodiesterase gamma-1 (Homo sapiens, UniProt P19174); experiment: Counterscreen for inhibitors of phospholipase C isozymes (PLC-B3): Fluorescence-based biochemical high throughput dose response assay to identify inhibitors of phospholipase C isozymes (PLC-gamma1).
1-phosphatidylinositol 4,5-bisphosphate phosphodiesterase gamma-1, sequence (P19174 whole entry): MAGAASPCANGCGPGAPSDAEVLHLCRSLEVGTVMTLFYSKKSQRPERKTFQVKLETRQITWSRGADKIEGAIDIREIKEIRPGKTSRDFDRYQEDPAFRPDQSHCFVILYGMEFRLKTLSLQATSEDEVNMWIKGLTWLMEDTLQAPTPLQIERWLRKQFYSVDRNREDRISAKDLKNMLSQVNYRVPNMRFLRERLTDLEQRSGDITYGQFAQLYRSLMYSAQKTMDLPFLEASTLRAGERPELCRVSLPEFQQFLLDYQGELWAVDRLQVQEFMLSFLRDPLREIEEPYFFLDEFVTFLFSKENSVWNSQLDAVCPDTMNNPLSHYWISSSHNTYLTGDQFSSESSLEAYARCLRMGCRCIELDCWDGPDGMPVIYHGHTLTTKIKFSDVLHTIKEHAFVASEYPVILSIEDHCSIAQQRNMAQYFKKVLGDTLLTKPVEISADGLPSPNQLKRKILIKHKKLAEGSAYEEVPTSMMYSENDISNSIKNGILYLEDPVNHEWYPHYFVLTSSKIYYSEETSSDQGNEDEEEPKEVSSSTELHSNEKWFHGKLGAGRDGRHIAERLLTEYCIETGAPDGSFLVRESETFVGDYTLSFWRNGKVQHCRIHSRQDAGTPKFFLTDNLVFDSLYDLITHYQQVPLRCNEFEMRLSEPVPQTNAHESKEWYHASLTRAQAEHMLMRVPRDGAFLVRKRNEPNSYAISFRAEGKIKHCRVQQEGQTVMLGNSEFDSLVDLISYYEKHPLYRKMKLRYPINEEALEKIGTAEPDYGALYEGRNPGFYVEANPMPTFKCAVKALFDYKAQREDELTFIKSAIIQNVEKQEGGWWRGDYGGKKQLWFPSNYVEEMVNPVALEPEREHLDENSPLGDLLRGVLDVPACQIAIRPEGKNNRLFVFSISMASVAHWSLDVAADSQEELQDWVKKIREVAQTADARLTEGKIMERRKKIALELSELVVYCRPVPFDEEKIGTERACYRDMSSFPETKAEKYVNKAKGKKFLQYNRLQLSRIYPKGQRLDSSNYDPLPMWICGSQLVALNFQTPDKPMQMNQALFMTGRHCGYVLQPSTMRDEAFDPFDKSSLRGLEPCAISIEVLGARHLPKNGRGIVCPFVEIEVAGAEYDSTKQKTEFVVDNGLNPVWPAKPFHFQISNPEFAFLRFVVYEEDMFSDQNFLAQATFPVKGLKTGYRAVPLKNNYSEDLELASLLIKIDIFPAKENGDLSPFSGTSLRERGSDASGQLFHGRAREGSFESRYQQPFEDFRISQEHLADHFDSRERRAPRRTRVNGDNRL

[4] = target: T2, Tyrosine-protein phosphatase non-receptor type 7 (Homo sapiens, UniProt P35236); assay type: functional
T2 sequence (P35236 whole entry): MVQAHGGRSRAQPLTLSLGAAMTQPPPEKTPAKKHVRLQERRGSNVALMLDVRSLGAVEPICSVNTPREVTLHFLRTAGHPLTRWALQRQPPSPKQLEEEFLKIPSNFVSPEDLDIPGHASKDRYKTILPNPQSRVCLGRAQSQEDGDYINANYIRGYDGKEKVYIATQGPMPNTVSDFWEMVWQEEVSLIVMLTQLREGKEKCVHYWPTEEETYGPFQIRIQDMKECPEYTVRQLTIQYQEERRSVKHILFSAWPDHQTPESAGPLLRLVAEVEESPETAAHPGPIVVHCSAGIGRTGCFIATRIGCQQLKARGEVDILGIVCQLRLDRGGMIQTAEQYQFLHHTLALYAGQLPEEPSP

[5] = target: T3, Tyrosine-protein phosphatase non-receptor type 22 (Homo sapiens, UniProt Q9Y2R2); assay type: functional;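 also: confirmatory dose-response retesting of primary uHTS hits against LYP; potency is for inhibition of phosphatase activity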
T3 sequence (Q9Y2R2 whole entry): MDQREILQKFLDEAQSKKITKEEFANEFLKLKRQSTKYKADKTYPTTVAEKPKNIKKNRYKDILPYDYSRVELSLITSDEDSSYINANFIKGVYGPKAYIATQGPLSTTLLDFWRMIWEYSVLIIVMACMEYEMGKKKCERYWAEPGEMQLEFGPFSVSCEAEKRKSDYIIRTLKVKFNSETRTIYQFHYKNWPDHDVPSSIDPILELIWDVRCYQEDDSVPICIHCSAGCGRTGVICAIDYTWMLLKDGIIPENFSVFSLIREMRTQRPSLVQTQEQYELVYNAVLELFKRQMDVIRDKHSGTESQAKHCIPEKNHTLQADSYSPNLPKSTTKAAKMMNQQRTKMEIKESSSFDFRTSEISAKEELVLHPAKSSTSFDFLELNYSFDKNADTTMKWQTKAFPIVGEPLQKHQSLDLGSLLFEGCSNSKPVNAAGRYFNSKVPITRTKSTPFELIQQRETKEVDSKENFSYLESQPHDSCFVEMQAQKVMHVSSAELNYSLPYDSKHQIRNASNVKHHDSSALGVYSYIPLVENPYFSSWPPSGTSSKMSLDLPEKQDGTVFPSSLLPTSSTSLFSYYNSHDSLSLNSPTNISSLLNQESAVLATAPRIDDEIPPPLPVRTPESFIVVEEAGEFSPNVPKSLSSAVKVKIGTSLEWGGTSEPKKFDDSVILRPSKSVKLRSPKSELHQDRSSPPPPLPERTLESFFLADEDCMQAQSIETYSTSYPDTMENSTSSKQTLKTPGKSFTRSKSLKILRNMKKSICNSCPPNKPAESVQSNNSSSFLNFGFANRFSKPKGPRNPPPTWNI

[6] = target: Guanyl-specific ribonuclease T1 (Aspergillus oryzae (strain ATCC 42149 / RIB 40), UniProt P00651); experiment: RNase T1 inhibitors, dose response, counter-screen for TPT1 inhibitor project, biochemical, fluorescence polarization, 1536-well (AID 2167)
Guanyl-specific ribonuclease T1, sequence (P00651 whole entry): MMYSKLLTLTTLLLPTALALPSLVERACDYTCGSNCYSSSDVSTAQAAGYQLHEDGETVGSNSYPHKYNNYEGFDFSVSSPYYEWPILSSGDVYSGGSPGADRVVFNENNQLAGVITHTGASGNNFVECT

[7] = target: Large T antigen (Simian virus 40, UniProt P03070); assay type: functional, Betapolyomavirus macacae;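 also: Confirmatory-stage PubChem screen for compounds that inhibit SV40 T antigen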
Large T antigen, sequence (P03070 whole entry): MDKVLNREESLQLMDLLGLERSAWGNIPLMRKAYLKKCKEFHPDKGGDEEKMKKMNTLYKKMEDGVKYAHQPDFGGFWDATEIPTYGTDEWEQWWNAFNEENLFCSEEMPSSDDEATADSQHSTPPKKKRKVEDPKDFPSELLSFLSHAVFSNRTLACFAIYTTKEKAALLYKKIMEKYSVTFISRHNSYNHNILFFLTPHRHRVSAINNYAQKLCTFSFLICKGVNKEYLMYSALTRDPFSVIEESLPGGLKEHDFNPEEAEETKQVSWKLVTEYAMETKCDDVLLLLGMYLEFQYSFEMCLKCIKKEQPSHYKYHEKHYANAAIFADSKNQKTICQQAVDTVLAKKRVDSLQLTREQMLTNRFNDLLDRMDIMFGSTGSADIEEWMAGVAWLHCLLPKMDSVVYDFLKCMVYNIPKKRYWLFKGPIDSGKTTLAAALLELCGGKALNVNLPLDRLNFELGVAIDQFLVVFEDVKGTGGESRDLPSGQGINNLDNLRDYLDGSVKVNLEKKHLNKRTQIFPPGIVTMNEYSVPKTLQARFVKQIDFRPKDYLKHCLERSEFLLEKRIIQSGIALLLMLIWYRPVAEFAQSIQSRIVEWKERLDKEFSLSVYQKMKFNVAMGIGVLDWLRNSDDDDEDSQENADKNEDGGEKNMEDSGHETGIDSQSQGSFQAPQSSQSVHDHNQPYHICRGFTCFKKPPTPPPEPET

[8] = tested on: HeLa; experiment: HeLa cell cytotoxicity, dose response, cytotoxicity control, 24 h, cherry-picked samples (AID 504726); assay type: functional, cell-based; settings: Homo sapiens;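 also: potency for cytotoxicity as loss of luminescence signal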
[9] = target: T2, Tyrosine-protein phosphatase non-receptor type 7; experiment: redox-dependent HePTP inhibition, mechanism study, biochemical, fluorescence (AID 2068); assay type: functional
[10] = target: Keap1/Nrf2 (Homo sapiens, UniProt Q14145); experiment: Keap1-Nrf2 protein-protein interaction inhibitors, dose response, biochemical, fluorescence polarization, cherry-picked samples (AID 588683)
Keap1/Nrf2, sequence (Q16236 whole entry): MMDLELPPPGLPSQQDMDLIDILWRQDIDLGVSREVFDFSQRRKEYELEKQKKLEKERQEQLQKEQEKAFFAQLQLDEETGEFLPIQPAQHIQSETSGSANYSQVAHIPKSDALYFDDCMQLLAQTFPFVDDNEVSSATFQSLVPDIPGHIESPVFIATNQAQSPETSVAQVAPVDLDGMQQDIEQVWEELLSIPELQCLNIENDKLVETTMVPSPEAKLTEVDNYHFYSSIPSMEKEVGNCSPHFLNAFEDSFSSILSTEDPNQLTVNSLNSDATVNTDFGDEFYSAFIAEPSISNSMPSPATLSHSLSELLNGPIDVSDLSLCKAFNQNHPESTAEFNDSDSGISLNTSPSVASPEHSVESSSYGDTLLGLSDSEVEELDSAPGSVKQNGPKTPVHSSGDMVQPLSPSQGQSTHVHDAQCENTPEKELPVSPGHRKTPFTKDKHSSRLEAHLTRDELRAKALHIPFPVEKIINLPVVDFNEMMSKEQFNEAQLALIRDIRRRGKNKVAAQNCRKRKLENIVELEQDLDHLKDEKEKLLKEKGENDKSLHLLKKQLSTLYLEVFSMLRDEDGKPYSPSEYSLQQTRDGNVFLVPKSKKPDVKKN
Keap1/Nrf2, sequence (Q14145 whole entry): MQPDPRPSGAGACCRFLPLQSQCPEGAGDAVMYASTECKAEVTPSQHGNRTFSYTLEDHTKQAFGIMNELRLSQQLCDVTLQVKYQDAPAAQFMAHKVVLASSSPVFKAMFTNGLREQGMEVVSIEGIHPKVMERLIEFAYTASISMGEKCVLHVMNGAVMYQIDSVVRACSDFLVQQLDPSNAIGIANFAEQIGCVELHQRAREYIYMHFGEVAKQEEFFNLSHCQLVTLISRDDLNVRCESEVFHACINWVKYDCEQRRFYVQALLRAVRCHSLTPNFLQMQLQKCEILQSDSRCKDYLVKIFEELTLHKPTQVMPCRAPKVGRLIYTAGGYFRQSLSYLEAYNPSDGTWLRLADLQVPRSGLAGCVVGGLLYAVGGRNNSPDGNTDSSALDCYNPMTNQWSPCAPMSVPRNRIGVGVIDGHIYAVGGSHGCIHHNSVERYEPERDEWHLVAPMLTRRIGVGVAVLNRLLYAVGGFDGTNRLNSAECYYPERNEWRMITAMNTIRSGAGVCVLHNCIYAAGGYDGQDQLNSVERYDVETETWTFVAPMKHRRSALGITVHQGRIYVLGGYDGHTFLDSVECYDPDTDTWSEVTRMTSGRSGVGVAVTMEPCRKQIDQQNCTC

[11] = target: 26S proteasome non-ATPase regulatory subunit 14 (Homo sapiens, UniProt O00487); experiment: inhibition of proteasome subunit RPN11 – biochemical, fluorescence polarization, uHTS hits, confirmation (AID 602368); assay type: functional
26S proteasome non-ATPase regulatory subunit 14, sequence (O00487 whole entry): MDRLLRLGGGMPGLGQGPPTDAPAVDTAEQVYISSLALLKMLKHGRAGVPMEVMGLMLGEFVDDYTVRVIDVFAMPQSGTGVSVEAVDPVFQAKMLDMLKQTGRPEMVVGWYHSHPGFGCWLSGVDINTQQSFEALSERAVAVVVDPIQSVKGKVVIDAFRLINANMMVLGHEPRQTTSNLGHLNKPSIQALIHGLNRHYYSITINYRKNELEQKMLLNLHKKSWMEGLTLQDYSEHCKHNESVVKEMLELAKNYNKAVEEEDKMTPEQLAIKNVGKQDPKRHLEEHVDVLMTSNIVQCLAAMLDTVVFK

Serine/threonine-protein phosphatase, sequence (Q9BPW0 whole entry): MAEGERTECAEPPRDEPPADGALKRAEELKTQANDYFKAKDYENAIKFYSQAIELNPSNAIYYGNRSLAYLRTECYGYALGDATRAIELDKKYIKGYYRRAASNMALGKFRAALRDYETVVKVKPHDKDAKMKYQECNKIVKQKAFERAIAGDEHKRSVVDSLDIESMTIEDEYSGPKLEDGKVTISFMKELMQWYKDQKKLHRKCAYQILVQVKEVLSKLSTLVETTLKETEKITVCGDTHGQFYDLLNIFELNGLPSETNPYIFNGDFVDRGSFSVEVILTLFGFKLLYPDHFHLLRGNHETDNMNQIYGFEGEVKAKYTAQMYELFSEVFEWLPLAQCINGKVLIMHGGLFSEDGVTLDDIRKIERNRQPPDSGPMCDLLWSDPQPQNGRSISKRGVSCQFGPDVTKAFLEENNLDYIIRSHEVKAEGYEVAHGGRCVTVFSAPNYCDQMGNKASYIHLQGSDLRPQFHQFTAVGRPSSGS

**Q.** Which IC50 [1] does the source give for `CCOC(=O)C1=C(C)OC2(O)c3ccccc3C(=O)C12O` (stereo unspecified) here?
**A.** > 67 µM (not active)

**Q.** `COC(=O)c1cc(C)nc2c1C(=O)C(=O)C=C2N1CCOCC1` was tested. Which AC50 [2] did it give?
**A.** 1.36 µM (active)

**Q.** What about the IC50 [3] of the same compound?
**A.** 13.7 µM (inactive)

**Q.** With `N#Cc1c(N2CCCC2)nc(N)c2c(N)nc(N3CCCC3)cc12` as the compound, how does the IC50 [4] read?
**A.** 74.3 µM (active)

**Q.** And the IC50 [5]?
**A.** > 79.4 µM (inactive)

**Q.** For `NS(=O)(=O)c1cc(C(=O)NC2CCSc3ccccc32)ccc1Cl` (stereo unspecified), which IC50 [6] is on record?
**A.** > 55.7 µM (not active)

**Q.** And the IC50 [7]?
**A.** 62.1 µM (active)

**Q.** And the AC50 [8]?
**A.** > 350 µM (inactive)

**Q.** What about the IC50 [9] of the same compound?
**A.** 0.066 µM (active)

**Q.** What about the AC50 [10] of the same compound?
**A.** > 52 µM (inactive)

**Q.** What about the IC50 [11] of the same compound?
**A.** 0.763 µM (active)
